Tested on: MV-4-11 cells
Experiment: Gene expression microarray analysis (Affymetrix PrimeView) and GSEA
Assay type: cell-based, human
Parameters: RFU PODN (11730768_x_at) / Fold change /veh PODN (11730768_x_at) / RFU LINC00158 (11744669_a_at) / Fold change /veh LINC00158 (11744669_a_at) / RFU DUSP10 (11751237_a_at) / Fold change /veh DUSP10 (11751237_a_at) / RFU ID3 (11757404_x_at) / Fold change /veh ID3 (11757404_x_at) / RFU PLEKHG5 (11737974_s_at) / Fold change /veh PLEKHG5 (11737974_s_at) / RFU LRRC4B (11730491_at) / Fold change /veh LRRC4B (11730491_at) / RFU GIMAP4 (11747438_a_at) / Fold change /veh GIMAP4 (11747438_a_at) / RFU KRT8 (11758183_x_at) / Fold change /veh KRT8 (11758183_x_at) / RFU CNN1 (11734310_a_at) / Fold change /veh CNN1 (11734310_a_at) / RFU VPS37D (11726825_at) / Fold change /veh VPS37D (11726825_at) / RFU C10orf10 (11716522_x_at) / Fold change /veh C10orf10 (11716522_x_at) / RFU KIR2DL2 /// KIR2DL4 /// KIR2DL5A /// KIR2DL5B /// KIR2DS1 /// KIR2DS2 /// KIR2DS3 /// KIR2DS4 /// KIR3DL3 /// KIR3DL3 /// KIR3DS1 (11738374_at) / Fold change /veh KIR2DL2 /// KIR2DL4 /// KIR2DL5A /// KIR2DL5B /// KIR2DS1 /// KIR2DS2 /// KIR2DS3 /// KIR2DS4 /// KIR3DL3 /// KIR3DL3 /// KIR3DS1 (11738374_at) / RFU C1QL1 (11718748_at) / Fold change /veh C1QL1 (11718748_at) / RFU TMPRSS4 (11747572_a_at) / Fold change /veh TMPRSS4 (11747572_a_at) / RFU HAMP (11756126_x_at) / Fold change /veh HAMP (11756126_x_at) / RFU RNFT2 (11725882_a_at) / Fold change /veh RNFT2 (11725882_a_at) / RFU NR4A2 (11747474_a_at) / Fold change /veh NR4A2 (11747474_a_at) / RFU ABCC12 (11746883_a_at) / Fold change /veh ABCC12 (11746883_a_at) / RFU TMEM136 (11760407_x_at) / Fold change /veh TMEM136 (11760407_x_at) / RFU CLDN22 /// WWC2 (11732394_at) / Fold change /veh CLDN22 /// WWC2 (11732394_at) / RFU HLA-DPB1 (11760878_x_at) / Fold change /veh HLA-DPB1 (11760878_x_at) / RFU SPINT1 (11716480_a_at) / Fold change /veh SPINT1 (11716480_a_at) / RFU GAP43 (11754022_s_at) / Fold change /veh GAP43 (11754022_s_at) / RFU A4GNT (11735810_at) / Fold change /veh A4GNT (11735810_at) / RFU PRB3 (11715151_x_at) / Fold change /veh PRB3 (11715151_x_at) / RFU TUBB4B (11761932_at) / Fold change /veh TUBB4B (11761932_at) / RFU CAPN14 (11732068_a_at) / Fold change /veh CAPN14 (11732068_a_at) / RFU TMCC2 (11721928_a_at) / Fold change /veh TMCC2 (11721928_a_at) / RFU IRGQ (11745062_a_at) / Fold change /veh IRGQ (11745062_a_at) / RFU FAM174B (11720279_a_at) / Fold change /veh FAM174B (11720279_a_at) / RFU TMPRSS4 (11748680_a_at) / Fold change /veh TMPRSS4 (11748680_a_at) / RFU FAM212B (11763350_a_at) / Fold change /veh FAM212B (11763350_a_at) / RFU PLEKHG5 (11743358_a_at) / Fold change /veh PLEKHG5 (11743358_a_at) / RFU ZSCAN30 (11745921_a_at) / Fold change /veh ZSCAN30 (11745921_a_at) / RFU CMKLR1 (11741424_a_at) / Fold change /veh CMKLR1 (11741424_a_at) / RFU LOC101060620 /// MAPK8IP1 (11723275_at) / Fold change /veh LOC101060620 /// MAPK8IP1 (11723275_at) / RFU SPTSSB (11747773_x_at) / Fold change /veh SPTSSB (11747773_x_at) / RFU PRSS12 (11739890_at) / Fold change /veh PRSS12 (11739890_at) / RFU BIN1 (11741810_x_at) / Fold change /veh BIN1 (11741810_x_at) / RFU WNT11 (11732464_a_at) / Fold change /veh WNT11 (11732464_a_at) / RFU C10orf10 (11716521_a_at) / Fold change /veh C10orf10 (11716521_a_at) / RFU C5orf56 (11738089_at) / Fold change /veh C5orf56 (11738089_at) / RFU CYB561 (11721691_x_at) / Fold change /veh CYB561 (11721691_x_at) / RFU ANKRD19P (11752326_a_at) / Fold change /veh ANKRD19P (11752326_a_at) / RFU OR2T12 /// OR2T33 /// OR2T8 (11738714_s_at) / Fold change /veh OR2T12 /// OR2T33 /// OR2T8 (11738714_s_at) / RFU VCAN (11748164_a_at) / Fold change /veh VCAN (11748164_a_at) / RFU JSRP1 (11732532_at) / Fold change /veh JSRP1 (11732532_at) / RFU KRTAP10-11 (11738290_x_at) / Fold change /veh KRTAP10-11 (11738290_x_at) / RFU MYO3A (11730013_a_at) / Fold change /veh MYO3A (11730013_a_at) / RFU EBF3 (11725865_a_at) / Fold change /veh EBF3 (11725865_a_at) / RFU CAMK2N1 (11719241_x_at) / Fold change /veh CAMK2N1 (11719241_x_at) / RFU C5orf56 (11738088_a_at) / Fold change /veh C5orf56 (11738088_a_at) / RFU OLFML3 (11715873_a_at) / Fold change /veh OLFML3 (11715873_a_at) / RFU LOC100653217 /// NTM (11731650_a_at) / Fold change /veh LOC100653217 /// NTM (11731650_a_at) / RFU MAPK11 (11762145_a_at) / Fold change /veh MAPK11 (11762145_a_at) / RFU FIZ1 (11724087_x_at) / Fold change /veh FIZ1 (11724087_x_at) / RFU OASL (11726364_x_at) / Fold change /veh OASL (11726364_x_at) / RFU SOX15 (11748057_x_at) / Fold change /veh SOX15 (11748057_x_at) / RFU CD79A (11719716_a_at) / Fold change /veh CD79A (11719716_a_at) / RFU HIST1H1D (11736915_at) / Fold change /veh HIST1H1D (11736915_at) / RFU CASKIN2 (11723855_a_at) / Fold change /veh CASKIN2 (11723855_a_at) / RFU LOC730098 (11760151_x_at) / Fold change /veh LOC730098 (11760151_x_at) / RFU OR4N2 (11742367_at) / Fold change /veh OR4N2 (11742367_at) / RFU PRRT2 (11749266_a_at) / Fold change /veh PRRT2 (11749266_a_at) / RFU SNX32 (11753110_a_at) / Fold change /veh SNX32 (11753110_a_at) / RFU CDHR5 (11726645_a_at) / Fold change /veh CDHR5 (11726645_a_at) / RFU RCAN1 (11760418_a_at) / Fold change /veh RCAN1 (11760418_a_at) / RFU FAM167A (11723789_a_at) / Fold change /veh FAM167A (11723789_a_at) / RFU FAM26E (11764081_at) / Fold change /veh FAM26E (11764081_at) / RFU ISYNA1 (11749810_s_at) / Fold change /veh ISYNA1 (11749810_s_at) / RFU ACY1 (11761880_at) / Fold change /veh ACY1 (11761880_at) / RFU 11764098_at / Fold change /veh 11764098_at / RFU SAMD14 (11745864_x_at) / Fold change /veh SAMD14 (11745864_x_at) / RFU NPB (11741838_a_at) / Fold change /veh NPB (11741838_a_at) / RFU TMPRSS6 (11731388_a_at) / Fold change /veh TMPRSS6 (11731388_a_at) / RFU KRTAP10-2 (11738614_at) / Fold change /veh KRTAP10-2 (11738614_at) / RFU ARHGAP8 /// PRR5-ARHGAP8 (11727945_x_at) / Fold change /veh ARHGAP8 /// PRR5-ARHGAP8 (11727945_x_at) / RFU KRTAP5-7 /// NADSYN1 (11734609_at) / Fold change /veh KRTAP5-7 /// NADSYN1 (11734609_at) / RFU RASL12 (11751679_a_at) / Fold change /veh RASL12 (11751679_a_at) / RFU CDKN2B (11736163_a_at) / Fold change /veh CDKN2B (11736163_a_at) / RFU PRF1 (11729649_at) / Fold change /veh PRF1 (11729649_at) / RFU, ZNF638 /// ZNF638-IT1 / Fold change vs veh, ZNF638 /// ZNF638-IT1 / RFU, PANK3 / Fold change vs veh, PANK3 / RFU, SH3YL1 / Fold change vs veh, SH3YL1 / RFU, ZEB2 / Fold change vs veh, ZEB2 / RFU, NRIP1 / Fold change vs veh, NRIP1 / RFU, PTTG1IP / Fold change vs veh, PTTG1IP / RFU, CAPN2 / Fold change vs veh, CAPN2 / RFU, MED14 / Fold change vs veh, MED14 / RFU, SNORA58 / Fold change vs veh, SNORA58 / RFU, C1orf63 / Fold change vs veh, C1orf63 / RFU, LRRFIP1 / Fold change vs veh, LRRFIP1 / RFU, NDUFAF7 / Fold change vs veh, NDUFAF7 / RFU, SLC12A2 / Fold change vs veh, SLC12A2 / RFU, IBTK / Fold change vs veh, IBTK / RFU, ESF1 / Fold change vs veh, ESF1 / Fold change vs veh, TMEM50B / RFU, TAOK1 / Fold change vs veh, TAOK1 / RFU, ACBD3 / Fold change vs veh, ACBD3 / RFU, TMA16 / Fold change vs veh, TMA16 / RFU, RWDD3 / Fold change vs veh, RWDD3 / RFU, BCAT1 / Fold change vs veh, BCAT1 / RFU, EDEM3 / Fold change vs veh, EDEM3 / RFU, TMEM33 / Fold change vs veh, TMEM33 / RFU, WDR75 / Fold change vs veh, WDR75 / RFU, AHCTF1 / Fold change vs veh, AHCTF1 / RFU, TFRC / Fold change vs veh, TFRC / RFU, ZDHHC17 / Fold change vs veh, ZDHHC17 / RFU, NOM1 / Fold change vs veh, NOM1 / RFU, ARL8B / Fold change vs veh, ARL8B / RFU, ZBTB11 / Fold change vs veh, ZBTB11 / RFU, TAMM41 / Fold change vs veh, TAMM41 / RFU, KIAA1704 /// LOC100996395 / Fold change vs veh, KIAA1704 /// LOC100996395 / RFU, ING1 / Fold change vs veh, ING1 / RFU, TRMT61B / Fold change vs veh, TRMT61B / RFU, FUBP3 / Fold change vs veh, FUBP3 / RFU, TP53 / Fold change vs veh, TP53 / RFU, TNKS2 / Fold change vs veh, TNKS2 / RFU, ZFP14 / Fold change vs veh, ZFP14 / RFU, ACTR2 / Fold change vs veh, ACTR2 / RFU, PPP3R1 / Fold change vs veh, PPP3R1 / RFU, PIK3R1 / Fold change vs veh, PIK3R1 / RFU, HNRNPA1 / Fold change vs veh, HNRNPA1 / RFU, RNF170 / Fold change vs veh, RNF170 / RFU, ZNF28 / Fold change vs veh, ZNF28 / RFU, RNGTT / Fold change vs veh, RNGTT / RFU, OGT / Fold change vs veh, OGT / RFU, BRD1 / Fold change vs veh, BRD1 / RFU, MARS / Fold change vs veh, MARS / RFU, ZNF655 / Fold change vs veh, ZNF655 / RFU, FAHD1 / Fold change vs veh, FAHD1 / RFU, BDP1 / Fold change vs veh, BDP1 / RFU, LRRCC1 / Fold change vs veh, LRRCC1 / RFU, ARID1A / Fold change vs veh, ARID1A / RFU, ZNF146 / Fold change vs veh, ZNF146 / RFU, ZNF330 / Fold change vs veh, ZNF330 / RFU, GPN3 / Fold change vs veh, GPN3 / RFU, C9orf123 / Fold change vs veh, C9orf123 / RFU, N4BP2L2 / Fold change vs veh, N4BP2L2 / RFU, ARFIP1 / Fold change vs veh, ARFIP1 / RFU, FAM179B / Fold change vs veh, FAM179B / RFU, BCL10 / Fold change vs veh, BCL10 / RFU, UHRF1BP1L / Fold change vs veh, UHRF1BP1L / RFU, BET1 / Fold change vs veh, BET1 / RFU, CNOT2 / Fold change vs veh, CNOT2 / RFU, ZNF268 / Fold change vs veh, ZNF268 / Fold change vs veh, ZNF507 / RFU, DGCR2 / Fold change vs veh, DGCR2 / RFU, WDSUB1 / Fold change vs veh, WDSUB1 / Fold change vs veh, HSP90B1 /// MIR3652 / RFU, ADSS / Fold change vs veh, ADSS / RFU, GK / Fold change vs veh, GK / RFU, ZNF148 / Fold change vs veh, ZNF148 / RFU, TAF9 / Fold change vs veh, TAF9 / RFU, SLC1A5 / Fold change vs veh, SLC1A5 / RFU, SLMO2 / Fold change vs veh, SLMO2 / RFU, ABCC4 / Fold change vs veh, ABCC4 / RFU, LOC101060439 /// RAP1B / Fold change vs veh, LOC101060439 /// RAP1B / RFU, RFX7 / Fold change vs veh, RFX7 / RFU, GTPBP10 / Fold change vs veh, GTPBP10 / RFU, CNEP1R1 / Fold change vs veh, CNEP1R1 / RFU, BIVM-ERCC5 /// ERCC5 / Fold change vs veh, BIVM-ERCC5 /// ERCC5 / RFU, ILF3 / Fold change vs veh, ILF3 / RFU 11762660_at / Fold change /veh 11762660_at / RFU VCAN (11757783_s_at) / Fold change /veh VCAN (11757783_s_at) / RFU DDX43 (11728927_at) / Fold change /veh DDX43 (11728927_at) / RFU KRT8 (11758188_x_at) / Fold change /veh KRT8 (11758188_x_at) / RFU NKD1 (11759106_at) / Fold change /veh NKD1 (11759106_at) / RFU SRD5A1 (11742802_a_at) / Fold change /veh SRD5A1 (11742802_a_at) / RFU TPSAB1 /// TPSB2 (11721975_s_at) / Fold change /veh TPSAB1 /// TPSB2 (11721975_s_at) / RFU GSTM3 (11746129_a_at) / Fold change /veh GSTM3 (11746129_a_at) / RFU IL23R (11737362_x_at) / Fold change /veh IL23R (11737362_x_at) / RFU TMEM51 (11727254_a_at) / Fold change /veh TMEM51 (11727254_a_at) / RFU PIWIL2 (11732686_x_at) / Fold change /veh PIWIL2 (11732686_x_at) / RFU ORM1 (11744905_x_at) / Fold change /veh ORM1 (11744905_x_at) / RFU CCDC152 (11743942_at) / Fold change /veh CCDC152 (11743942_at) / RFU ECM1 (11717891_a_at) / Fold change /veh ECM1 (11717891_a_at) / RFU IL23R (11748794_a_at) / Fold change /veh IL23R (11748794_a_at) / RFU TNFAIP8L3 (11732012_x_at) / Fold change /veh TNFAIP8L3 (11732012_x_at) / RFU MBOAT4 (11741988_at) / Fold change /veh MBOAT4 (11741988_at) / RFU 11764193_at / Fold change /veh 11764193_at / RFU TMEM53 (11763286_at) / Fold change /veh TMEM53 (11763286_at) / RFU MAGEB2 (11727129_at) / Fold change /veh MAGEB2 (11727129_at) / RFU TMEM200A (11744735_a_at) / Fold change /veh TMEM200A (11744735_a_at) / RFU CCDC152 (11751479_a_at) / Fold change /veh CCDC152 (11751479_a_at) / RFU FAM211A (11726209_a_at) / Fold change /veh FAM211A (11726209_a_at) / RFU RGS16 (11746705_a_at) / Fold change /veh RGS16 (11746705_a_at) / RFU VCAN (11755009_s_at) / Fold change /veh VCAN (11755009_s_at) / RFU RHOB (11743442_s_at) / Fold change /veh RHOB (11743442_s_at) / RFU RGS16 (11720943_a_at) / Fold change /veh RGS16 (11720943_a_at) / RFU RGS16 (11720944_at) / Fold change /veh RGS16 (11720944_at) / RFU, VPS4B / Fold change vs veh, VPS4B / RFU, CREB1 / Fold change vs veh, CREB1 / RFU, DNAJC13 / Fold change vs veh, DNAJC13 / RFU, GNAQ / Fold change vs veh, GNAQ / RFU, CDK5R1 / Fold change vs veh, CDK5R1 / RFU, ZRANB3 / Fold change vs veh, ZRANB3 / RFU, CUL4A / Fold change vs veh, CUL4A / RFU, CCNY / Fold change vs veh, CCNY / RFU, UFL1 / Fold change vs veh, UFL1 / RFU, COG3 / Fold change vs veh, COG3 / RFU, DIAPH2 / Fold change vs veh, DIAPH2 / RFU, SKA2 / Fold change vs veh, SKA2 / RFU, AFF3 / Fold change vs veh, AFF3 / RFU, LMF1 / Fold change vs veh, LMF1 / RFU, IPO11 / Fold change vs veh, IPO11 / RFU, DFFB / Fold change vs veh, DFFB / RFU, FOXP1 / Fold change vs veh, FOXP1 / RFU, CARD8 / Fold change vs veh, CARD8 / RFU, STRN3 / Fold change vs veh, STRN3 / RFU, ADK / Fold change vs veh, ADK / RFU, RASSF2 / Fold change vs veh, RASSF2 / RFU, WIPF1 / Fold change vs veh, WIPF1 / RFU, LARP1B / Fold change vs veh, LARP1B / RFU, RASA1 / Fold change vs veh, RASA1 / RFU, RB1 / Fold change vs veh, RB1 / RFU, PPFIA1 / Fold change vs veh, PPFIA1 / RFU, MAT2A / Fold change vs veh, MAT2A / RFU, CCT5 / Fold change vs veh, CCT5 / RFU, WDR92 / Fold change vs veh, WDR92 / RFU, CUX1 / Fold change vs veh, CUX1 / RFU, TTC7A / Fold change vs veh, TTC7A / RFU, TMEM135 / Fold change vs veh, TMEM135 / RFU, DEPTOR / Fold change vs veh, DEPTOR / RFU, CPM / Fold change vs veh, CPM / RFU, DNAJB6 / Fold change vs veh, DNAJB6 / RFU, CACNA2D3 / Fold change vs veh, CACNA2D3 / RFU, DTX4 / Fold change vs veh, DTX4 / RFU, TFCP2 / Fold change vs veh, TFCP2 / RFU, GMCL1 /// GMCL1P1 / Fold change vs veh, GMCL1 /// GMCL1P1 / RFU, AEBP2 / Fold change vs veh, AEBP2 / RFU, SNHG1 /// SNORD22 /// SNORD25 /// SNORD26 /// SNORD27 /// SNORD28 /// SNORD29 /// SNORD31 / Fold change vs veh, SNHG1 /// SNORD22 /// SNORD25 /// SNORD26 /// SNORD27 /// SNORD28 /// SNORD29 /// SNORD31 / Fold change (Aza/veh), C12orf56 (ProbeSet 11735607_a_at) / Fold change (ACY-1035/veh), C12orf56 (ProbeSet 11735607_a_at) / Fold change (Aza/veh), FGFR1OP (ProbeSet 11751329_s_at) / Fold change (ACY-1035/veh), FGFR1OP (ProbeSet 11751329_s_at) / Fold change (Aza/veh), VPS36 (ProbeSet 11739960_a_at) / Fold change (ACY-1035/veh), VPS36 (ProbeSet 11739960_a_at) / RFU SYPL1 (11715823_x_at) / Fold change /veh SYPL1 (11715823_x_at) / RFU IGFBP7 (11715501_s_at) / Fold change /veh IGFBP7 (11715501_s_at) / RFU REEP3 (11722064_at) / Fold change /veh REEP3 (11722064_at) / RFU IGLL1 (11728026_x_at) / Fold change /veh IGLL1 (11728026_x_at): dose or concentration left out as unconfirmed
Details: MV-4-11 cells, 48 hours

**Q.** For Nc1ncn([C@@H]2O[C@H](CO)[C@@H](O)[C@H]2O)c(=O)n1 [azacitidine], which “Fold change /veh RGS16 (11746705_a_at)” value is on record?
**A.** 1.56

Source: PMC5218480 (PLoS ONE, 2017)
